This note sets out measurements from article PMC6095608 (PLoS ONE, 2018).

One data set concerns the target T1, OCT1 (Homo sapiens, UniProt O15245).
T1 construct: expressed in transfected cells; host or cells: MDCKII (MDCK-OCT1)
T1 sequence (O15245 1-554): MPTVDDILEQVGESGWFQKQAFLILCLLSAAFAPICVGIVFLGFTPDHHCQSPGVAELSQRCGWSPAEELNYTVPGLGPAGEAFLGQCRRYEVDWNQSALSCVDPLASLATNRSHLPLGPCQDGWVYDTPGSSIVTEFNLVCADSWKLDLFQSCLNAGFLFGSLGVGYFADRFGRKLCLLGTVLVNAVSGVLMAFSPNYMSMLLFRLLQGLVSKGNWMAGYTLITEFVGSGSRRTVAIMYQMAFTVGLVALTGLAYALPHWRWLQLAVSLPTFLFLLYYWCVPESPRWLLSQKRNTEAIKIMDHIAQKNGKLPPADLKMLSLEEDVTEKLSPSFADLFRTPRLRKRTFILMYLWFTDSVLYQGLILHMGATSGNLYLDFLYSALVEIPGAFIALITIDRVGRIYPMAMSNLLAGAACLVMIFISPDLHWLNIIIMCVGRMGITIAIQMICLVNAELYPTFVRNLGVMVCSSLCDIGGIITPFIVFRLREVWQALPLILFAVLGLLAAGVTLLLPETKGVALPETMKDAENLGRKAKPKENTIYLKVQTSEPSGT
In words: Inhibition of net [14C]-metformin uptake in MDCK-OCT1 cells. The format is cell-based. The conditions noted are these: 50 μM metformin, 5 min, pH 7.4, efavirenz 0.01–50 μM, read-out: IC50, inhibition of net OCT1-mediated [14C]-metformin uptake. The procedure: (§1) The singly-transfected OCT1, OCT2, MATE1 or control MDCK cells were seeded on 12-well plates at a density of 0.5 x 10^6 cells per well and cultivated in standard cultivation medium MEM (Gibco) + 10% FBS. Forty-eight hours after seeding, uptake experiments with radiolabelled metformin were performed. Cells were washed with 500 μl pre-warmed HBSS buffer of pH 7.4 (for OCTs) or 8.0 (for MATE1). Solutions of [^14C]-metformin (50 μM) in HBSS buffer of pH 7.4 or 8.0 with or without efavirenz were then added, and the resulting mixtures were left to stand for an accumulation period of 5 minutes. […] After the accumulation period, the solutions were aspirated and the cells were washed three times with 500 μl ice-cold HBSS buffer of pH 7.4 or 8.0 before being lysed with 0.02% sodium dodecyl sulphate (SDS). The intracellular accumulation of radioactivity was detected using a liquid scintillation counter (Tri-Carb 2910 TR Perkin Elmer), and protein concentrations in the cell lysates were measured by the BCA protein assay. Net transporter-mediated uptake was obtained by subtracting the accumulation of metformin in vector control cells from that in drug transporter-overexpressing cells.
(§2) A p value of ≤ 0.05 was considered statistically significant. […]

The target in another data set is T2, OCT2 (Homo sapiens, UniProt O15244).
T2 construct: expressed in transfected cells; host or cells: MDCKII (MDCK-OCT2)
T2 sequence (O15244 1-555): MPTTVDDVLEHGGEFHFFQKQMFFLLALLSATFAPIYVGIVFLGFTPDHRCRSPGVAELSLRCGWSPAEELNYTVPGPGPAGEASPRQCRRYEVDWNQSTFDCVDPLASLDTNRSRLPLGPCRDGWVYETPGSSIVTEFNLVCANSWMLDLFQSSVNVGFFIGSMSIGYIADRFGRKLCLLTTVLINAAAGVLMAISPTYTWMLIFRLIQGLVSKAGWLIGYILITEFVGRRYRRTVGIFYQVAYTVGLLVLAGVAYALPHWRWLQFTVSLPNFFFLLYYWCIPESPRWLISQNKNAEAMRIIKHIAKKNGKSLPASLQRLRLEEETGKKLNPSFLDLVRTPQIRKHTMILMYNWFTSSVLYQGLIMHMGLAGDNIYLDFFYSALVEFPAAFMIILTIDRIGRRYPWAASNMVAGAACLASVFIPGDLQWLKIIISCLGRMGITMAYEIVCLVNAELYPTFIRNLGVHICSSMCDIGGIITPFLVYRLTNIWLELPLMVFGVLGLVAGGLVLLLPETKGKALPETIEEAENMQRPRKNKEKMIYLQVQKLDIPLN
In words: Inhibition of net [14C]-metformin uptake in MDCK-OCT2 cells. Type of data set: cell-based. To be noted: 50 μM metformin, 5 min, pH 7.4, efavirenz 0.01–50 μM, read-out: IC50, inhibition of net OCT2-mediated [14C]-metformin uptake. The procedure:
as §1, §2

Another data set concerns the target T3, MATE2-K (Homo sapiens, UniProt Q86VL8).
T3 construct: expressed in transfected cells; host or cells: HEK293 (transient, HEK-MATE2-K)
As to the kind of experiment: Inhibition of net [14C]-metformin uptake in HEK-MATE2-K cells. The format is cell-based. The conditions noted are these: HEK 293 cells expressing MATE2-K (HEK-MATE2-K), probe [14C]-metformin (50 μM), 50 μM efavirenz (highest tested), 50 μM metformin, p = 0.119, read-out: Inhibition of MATE2-K-mediated metformin transport. The procedure: Experiments on the uptake of metformin in HEK 293-cells mediated by MATE2-K were performed as previously described. The number of cells per well was 7.0x10^5 for HEK-MATE2-K cells and 3.5x10^5 for HEK-Co cells to compensate for differences in protein concentration in the two lines. To determine the inhibitory effect of efavirenz, this drug was added to the [^14C]-metformin (50 μM) incubation medium at concentrations of 0.01 μM, 0.1 μM, 1 μM, 5 μM, 10 μM, 25 μM, or 50 μM. […] The net uptake was then calculated as described above.

A further data set has as its system MDCK-Co cells. As to the kind of experiment: Transcellular transport assay across control MDCK-Co monolayers. The format is cell-based, canine. To be noted: 10 μM efavirenz, 2 nM MPP+, 2 h. The procedure:
Transport experiments employing polarized monolayers of MDCK-OCT1, MDCK-OCT2, or MDCK-MATE1 cell lines as well as doubly transfected MDCK-OCT1-MATE1 or MDCK-OCT2-MATE1 lines and the non-transfected parental control MDCK-Co cells grown on Transwell 3402 cell culture inserts (3.0 μm pore size, 24 mm diameter; Costar, Corning, NY) were performed as described previously. The number of cells per well was 0.5 x 10^6 in all experiments, and the cells were incubated for 3 days to confluence in standard cultivation medium MEM (Gibco) + 10% FBS. After 3 days’ cultivation, medium was removed from both sides and the cells of the monolayer were washed using pre-warmed PBS. Experiments were initiated by adding HBSS buffer containing 10 mM HEPES (pH 7.4) or 10 mM MES (pH 6.0) with or without [^3H]-lamivudine (10 nM) or [^3H]-MPP^+ (2 nM) to either the apical or basolateral compartment. The pH of the medium on the basolateral side was 7.4, while that on the apical side was set to 6.0 (adjusted by adding HCl or NaOH, when necessary) to ensure optimal MATE1 transport activity. Cells were incubated at 37°C in 5% CO2 for 2 hours. At the end of the incubation period, 50 μl aliquots were sampled and the rest of the medium was immediately removed. […] Transport rates were recorded in pmol per mg protein in the cellular monolayer.

T3 sequence (Q86VL8 1-566 isoform Q86VL8-3): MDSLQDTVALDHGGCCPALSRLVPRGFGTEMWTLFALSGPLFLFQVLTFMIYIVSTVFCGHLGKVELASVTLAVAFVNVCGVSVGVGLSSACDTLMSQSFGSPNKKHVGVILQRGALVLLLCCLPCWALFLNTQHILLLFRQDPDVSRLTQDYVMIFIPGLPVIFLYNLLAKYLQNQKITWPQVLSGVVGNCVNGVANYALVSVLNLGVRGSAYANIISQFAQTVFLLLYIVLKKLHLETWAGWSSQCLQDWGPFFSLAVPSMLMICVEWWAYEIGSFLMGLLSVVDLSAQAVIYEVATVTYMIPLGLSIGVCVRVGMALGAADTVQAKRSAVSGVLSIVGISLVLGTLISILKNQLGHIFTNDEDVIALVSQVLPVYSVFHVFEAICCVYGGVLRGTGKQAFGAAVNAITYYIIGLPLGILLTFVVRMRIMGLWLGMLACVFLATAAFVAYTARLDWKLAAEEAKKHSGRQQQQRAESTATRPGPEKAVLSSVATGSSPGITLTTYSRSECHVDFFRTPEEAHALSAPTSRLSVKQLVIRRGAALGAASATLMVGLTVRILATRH

The IC50 is the point on the concentration scale where inhibition reaches its midpoint. The inhibition is how much of the control response was suppressed. With `O=C1Nc2ccc(Cl)cc2[C@@](C#CC2CC2)(C(F)(F)F)O1` [efavirenz, Efavirenz], the IC50 at OCT1 worked out at 2.3 µM; at OCT2 it was 5.66 µM. Besides, the inhibition at 3 min, 50 μM on MATE2-K was found to be 48.1%. The “Effect on basolateral-to-apical transport of [3H]-MPP+” value with MDCK-Co cells was “no inhibitory effect”.
